Measurements: US11058716B2 (priority 2015, dated 2021)

Test system: PAO1 protein
Type: cell-based, Pseudomonas aeruginosa

## N[C@@H](CCC(=O)N[C@@H](CSN=O)C(=O)NCC(=O)O)C(=O)O [GSNO, nitrosoglutathione]
  overall SNO level of the PAO1 protein: increased significantly
